Test results reported in US20250177586A1, “HEATING APPARATUS AND METHODS” (ACADEMISCH ZIEKENHUIS LEIDEN (H.O.D.N. LUMC), priority 2018, published 2025).

System: S. Epidermidis biofilm
Experiment: Eradication of biofilm from titanium alloy coupon by induction-heating thermal shock followed by antibiotics (FIG. 13)
Format: cell-based
Conditions: vancomycine 10 mg/L and rifampicine 1 mg together, 24 hours exposure in BHI culture medium, after thermal shock of 65° C. from 3.5 minutes with induction heating, N=6 or greater
Text: N=6 or greater for each group.

Row | Compound | eradication of biofilm (active count, Log (CFU/cm^2))
1 | CO[C@H]1/C=C/O[C@@]2(C)Oc3c(C)c(O)c4c(O)c(c(/C=N/N5CCN(C)CC5)c(O)c4c3C2=O)NC(=O)/C(C)=C\C=C\[C@H](C)[C@H](O)[C@@H](C)[C@@H](O)[C@@H](C)[C@H](OC(C)=O)[C@@H]1C [rifampicine] | full eradication
2 | CN[C@H](CC(C)C)C(=O)N[C@H]1C(=O)N[C@@H](CC(N)=O)C(=O)N[C@H]2C(=O)N[C@H]3C(=O)N[C@H](C(=O)N[C@H](C(=O)O)c4cc(O)cc(O)c4-c4cc3ccc4O)[C@H](O)c3ccc(c(Cl)c3)Oc3cc2cc(c3O[C@@H]2O[C@H](CO)[C@@H](O)[C@H](O)[C@H]2O[C@H]2C[C@](C)(N)[C@H](O)[C@H](C)O2)Oc2ccc(cc2Cl)[C@H]1O [vancomycine] | full eradication
